Source: paper PMC6757234, “Extractions of Medical Cannabis Cultivars and the Role of Decarboxylation in Optimal Receptor Responses” (Cannabis and Cannabinoid Research, 2019)
Where two headings read alike, the source gives them in different places.

How the values were obtained:
CB2 receptor = target: T1, CB2 receptor (Homo sapiens, UniProt P34972); experiment: cAMP assay (HitHunter) in CHO-K1-CB2 cells, agonist and antagonist modes; type: cell-based; conditions: for CB2 Mode of action: CHO-K1-CB2 cells, forskolin 20 μM, NA = no activity; for EC50 / CB2 Efficacy (%): agonist or antagonist mode; for EC50: antagonist mode against CP-55940 at EC90; for CB2 Efficacy (%): percentage of the response to CP-55940
T1 construct: host or cells: CHO-K1-CB2

CB1 receptor = target: T2, CB1 receptor (Homo sapiens, UniProt P21554); experiment: cell-based; type: cell-based
T2 construct: host or cells: CHO-K1-CB1

human CB1 = target: human CB1; design: method as in PMID 28861508; conditions: reference standard contaminated with 2% Δ9-THC; read-out: approximate Ki at human CB1; cited from earlier work
human CB2 receptors = target: human CB2 receptors; design: method as in PMID 28861508; conditions: reference standard contaminated with 2% Δ9-THC; read-out: approximate Ki at human CB2; cited from earlier work
[1] = percentage of the response to CP-55940, agonist or antagonist mode

T1 sequence (P34972 whole entry): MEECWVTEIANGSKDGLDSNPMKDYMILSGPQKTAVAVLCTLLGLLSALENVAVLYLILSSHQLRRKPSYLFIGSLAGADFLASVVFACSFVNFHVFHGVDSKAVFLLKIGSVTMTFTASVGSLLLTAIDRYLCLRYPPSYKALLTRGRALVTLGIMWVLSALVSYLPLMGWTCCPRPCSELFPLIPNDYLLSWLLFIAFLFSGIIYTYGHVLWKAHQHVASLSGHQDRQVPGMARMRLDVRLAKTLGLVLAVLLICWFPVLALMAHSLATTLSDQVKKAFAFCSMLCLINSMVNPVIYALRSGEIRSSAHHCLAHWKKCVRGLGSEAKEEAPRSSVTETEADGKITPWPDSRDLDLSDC
T2 sequence (P21554 whole entry): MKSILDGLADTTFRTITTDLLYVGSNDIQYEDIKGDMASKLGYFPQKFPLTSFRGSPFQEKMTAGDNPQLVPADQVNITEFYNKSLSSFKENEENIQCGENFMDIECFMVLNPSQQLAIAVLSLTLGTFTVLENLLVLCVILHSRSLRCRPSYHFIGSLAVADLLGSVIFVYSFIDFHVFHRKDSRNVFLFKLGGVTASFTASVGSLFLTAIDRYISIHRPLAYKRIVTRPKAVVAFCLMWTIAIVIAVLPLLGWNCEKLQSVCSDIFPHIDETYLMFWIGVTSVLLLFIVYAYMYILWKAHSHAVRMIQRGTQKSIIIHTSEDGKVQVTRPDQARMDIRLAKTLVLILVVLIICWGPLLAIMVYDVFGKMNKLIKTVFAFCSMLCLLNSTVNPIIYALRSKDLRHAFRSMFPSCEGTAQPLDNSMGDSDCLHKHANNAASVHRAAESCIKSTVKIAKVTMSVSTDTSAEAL

## COc1ccc(C(=O)c2c(C)n(CCN3CCOCC3)c3cc(I)ccc23)cc1 [AM-630]
CB2 receptor
  CB2 Mode of action: Antagonist
  CB2 Efficacy (%): 100%
CB2 receptor; read-out: CB2 EC50
  EC50: 0.146 ± 0.084 µM

## C=C(C)[C@@H]1CCC(C)=C[C@H]1c1c(O)cc(CCCCC)cc1O [CBD, cannabidiol, reference compound]
CB2 receptor
  CB2 Mode of action: Antagonist
  CB2 Efficacy (%): 100%
CB1 receptor; CHO-K1-CB1 cells, forskolin 20 μM, NA = no activity
  CB1 Mode of action: Antagonist
CB1 receptor; [1]
  CB1 Efficacy (%): 40%

## C=C(C)[C@@H]1CCC(C)=C[C@H]1c1c(O)cc(CCCCC)c(C(=O)O)c1O [CBDA, cannabidiolic acid]
CB2 receptor; read-out: CB2 EC50
  EC50: > 100 µM
CB2 receptor; comparison of EC50 values
  fold weaker than CBD at CB2 receptor as an antagonist: more than 10 fold
CB2 receptor
  CB2 Efficacy (%): −23%
CB1 receptor
  EC50: > 10 µM
CB1 receptor; [1]
  CB1 Efficacy (%): 0%

## CCCCCCC(C)(C)c1ccc([C@@H]2C[C@H](O)CC[C@H]2CCCO)c(O)c1 [CP-55940, reference compound]
CB2 receptor
  CB2 Mode of action: Agonist
  CB2 Efficacy (%): 100%
CB1 receptor
  CB1 Efficacy (%): 100%
  CB1 Mode of action: Agonist

## CCCCCc1cc(O)c2c(c1)OC(C)(C)[C@@H]1CCC(C)=C[C@@H]21 [Δ^9-THC, Δ^9-tetrahydrocannabinol]
CB2 receptor
  CB2 Mode of action: Weak partial agonist
  CB2 Efficacy (%): 20%

## CCCCCc1cc2c(c(O)c1C(=O)O)[C@@H]1C=C(C)CC[C@H]1C(C)(C)O2 [Δ^9-THCA, Δ^9-tetrahydrocannabinolic acid]
CB2 receptor; CB2 EC50 (μM)
  EC50: 30 ± 15 µM
CB2 receptor
  CB2 Mode of action: Weak agonist
  CB2 Efficacy (%): 100%
Human CB1
  Ki: ~3.1 µM
CB1 receptor
  CB1 Efficacy (%): 100%
  CB1 Mode of action: Weak agonist
  EC50: 1.8 ± 0.7 µM
Human CB2 receptors
  Ki: ~12.5 µM
